We go through 20 compounds from patent US11208400B2, “Substituted 6-(1H-pyrazol-1-yl)pyrimidin-4-amine derivatives and uses thereof” (Bayer Aktiengesellschaft, priority 2016, dated 2021).

This experiment deals with T1, human Npt2a (Homo sapiens, UniProt Q06495).
T1 construct: expressed in transfected cells
T1 sequence (Q06495 1-639): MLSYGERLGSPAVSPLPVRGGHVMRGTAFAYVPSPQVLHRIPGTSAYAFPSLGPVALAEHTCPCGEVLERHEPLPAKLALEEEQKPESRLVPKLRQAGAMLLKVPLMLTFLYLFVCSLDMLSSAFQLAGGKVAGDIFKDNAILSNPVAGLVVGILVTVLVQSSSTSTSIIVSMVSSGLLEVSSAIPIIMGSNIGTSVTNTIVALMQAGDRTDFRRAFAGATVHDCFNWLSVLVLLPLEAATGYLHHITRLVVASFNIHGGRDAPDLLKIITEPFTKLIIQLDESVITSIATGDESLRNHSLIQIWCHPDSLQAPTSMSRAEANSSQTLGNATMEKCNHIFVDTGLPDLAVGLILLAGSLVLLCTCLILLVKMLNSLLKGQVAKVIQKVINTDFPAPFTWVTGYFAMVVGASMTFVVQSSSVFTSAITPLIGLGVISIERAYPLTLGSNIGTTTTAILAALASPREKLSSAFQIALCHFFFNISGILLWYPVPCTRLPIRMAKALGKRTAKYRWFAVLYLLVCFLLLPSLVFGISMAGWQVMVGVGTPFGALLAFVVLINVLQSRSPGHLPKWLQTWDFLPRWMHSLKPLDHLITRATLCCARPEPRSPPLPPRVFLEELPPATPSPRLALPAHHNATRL
The experiment in a line: Npt2a activity cell based assay, membrane potential dye, CHO T-REx hNpt2a cells. The following applies: doxycycline-induced, depolarization by sodium phosphate influx, average or median values if tested more than once. As to the method: For measuring Npt2a activity in a cell based assay, a stable CHO cell line with inducible Npt2a expression was generated. Therefore, CHO T-Rex cells (life technologies cat. R718-07) were stably transfected with doxycycline-inducible human NPT2a (pcDNA5TO-hNpt2a). The obtained CHO T-REx hNpt2a cells were routinely cultured in Dulbecco's MEM/F12 (4.5 g/l Glucose, Gibco cat. 21331-020; 500 mL) supplemented with 10 ml Glutamax 100×, Sodium pyruvate (7 mL of 100 mM solution), HEPES (10 mL of 1 M solution), Sodium bicarbonate (10 mL of 7.5% solution), 10% Fetal Bovine Serum Tetracycline free (Clontech cat. 631106, 500 ml), Penicillin-Streptomycin (5 mL of 100× Solution), Blasticidin 10 μg/mL and 400 μg/mL Hygromycin.
Activity of Npt2a was detected by following depolarization of cellular membrane potential by influx of sodium phosphate using fluorescent membrane potential dye kit BLUE (Molecular devices cat. R8034). For Npt2a activity measurements, CHO T-Rex hNpt2a cells were seeded into 1536 well microtiter plates (GREINER Bio-One cat. 782092) with 750 cells/well in 7 μL/w of complete medium (2% Tetracycline-free FBS, 2% Poly-D-Lysine) without selective agents+Doxycycline 0.5 μg/mL to induce Npt2a gene expression, and grown for 24 h at 37° C., 5% carbon dioxide.
On the day of experiment a 1×MPdye Loading Solution was freshly prepared by re-suspending 15 mg of Blue MPdye powder in 10 mL of NHE buffer sodium-free (140 mM N-Methyl-D-glucamine, 5.4 mM KCl, 1 mM CaCl2, 11 mM D(±)-Glucose water free, 1.2 mM MgCl2, 10 mM HEPES; pH 7.4 (adjusted with hydrochloric acid); sterile filtered). 5 μl medium was removed from plates by robotic manipulation, then 5 μL/well of sodium-free NHE buffer was added. After incubation for 2 min, this washing step was repeated once. Then, 5 μL/w of buffer was removed from plates and cells were incubated for 5 min at room temperature with 5 μL/w of MPdye Loading Solution (1× in Sodium-free NHE Buffer). Test compounds were added to the cells at final test concentrations between 50 μM and 1 nM (0.6 μL/well, final DMSO 0.6%, prepared in MPDye Loading Solution) and incubated for 5 min at room temperature.
Plates were analyzed with an in house CCD camera device using a λexc 510-545 nm/λem 565-625 nm filter. Fluorescence was detected for 15 sec (background measurement M1). Activity of Npt2a was triggered by addition of 2 μL/well of 30 mM Na+ and 1 mM phosphate (prepared in a mixture of NHE Buffer Na+ free and NHE Buffer 140 mM Na+). Fluorescence was followed for 2-3 min (depolarization measurement M2). Data was normalized to cell number and dye loading efficiency by calculating M2/M1. This quotient was plotted against test compound concentration. Graph Pad Prism or equivalent in house software was used to create sigmoidal dose-response curves (variable slope) and determine IC50 values.
For orientation: IC50 means the concentration that inhibits the measured activity by half. Read a high IC50 as weaker potency. `CCOC(=O)c1c(C)nn(-c2cc(Nc3c(C)c(-c4ccc(F)cc4)nn3CC3CC3)ncn2)c1C` [Example 152, ethyl 1-(6-{[1-(cyclopropylmethyl)-3-(4-fluorophenyl)-4-methyl-1H-pyrazol-5-yl]amino}pyrimidin-4-yl)-3,5-dimethyl-1H-pyrazole-4-carboxylate] yielded an IC50 of 6 nM.

Compound `Cc1nn(-c2cc(Nc3nn(CCC4CC4)c(-c4ccc(C#N)cc4)c3C)ncn2)c(C)c1Cl` [Example 222, 4-[3-{[6-(4-chloro-3,5-dimethyl-1H-pyrazol-1-yl)pyrimidin-4-yl]amino}-1-(2-cyclopropylethyl)-4-methyl-1H-pyrazol-5-yl]benzonitrile] displayed an IC50 of 44 nM. Against the preceding compound, the IC50 is about 7.3-fold higher.

`Cc1cc(C)n(-c2cc(Nc3c(C)c(-c4ccc(C5CC5)cc4)nn3C)ncn2)n1` [Example 324, N-[3-(4-cyclopropylphenyl)-1,4-dimethyl-1H-pyrazol-5-yl]-6-(3,5-dimethyl-1H-pyrazol-1-yl)pyrimidin-4-amine]: half-maximal inhibition (IC50) required 270 nM.

Compound `CCc1c(Nc2cc(-n3nc(C)c(C#N)c3C)ncn2)nn(C)c1-c1ccc(F)cc1` [Example 112, 1-(6-{[4-ethyl-5-(4-fluorophenyl)-1-methyl-1H-pyrazol-3-yl]amino}pyrimidin-4-yl)-3,5-dimethyl-1H-pyrazole-4-carbonitrile] showed an IC50 of 59.5 nM.

Take `Cc1ccc(-c2nn(CC3CC3)c(Nc3cc(-n4nc(C)c(C(C)(C)O)c4C)ncn3)c2C)cc1` [Example 389, 2-[1-(6-{[1-(cyclopropylmethyl)-4-methyl-3-(4-methylphenyl)-1H-pyrazol-5-yl]amino}pyrimidin-4-yl)-3,5-dimethyl-1H-pyrazol-4-yl]propan-2-ol]: the IC50 was 130 nM.

`CCC(O)c1c(C)nn(-c2cc(Nc3c(C)c(-c4ccc(F)cc4)nn3CC3CC3)ncn2)c1C` (racemic) [Example 280, (±)-1-[1-(6-{[1-(cyclopropylmethyl)-3-(4-fluorophenyl)-4-methyl-1H-pyrazol-5-yl]amino}pyrimidin-4-yl)-3,5-dimethyl-1H-pyrazol-4-yl]propan-1-ol (Racemic)] yielded an IC50 of 16 nM.

Take `CCc1c(-c2ccc(F)cc2)nn(CC2CC2)c1Nc1cc(-n2nc(C)c(C#N)c2C)ncn1` [Example 349, 1-(6-{[1-(cyclopropylmethyl)-4-ethyl-3-(4-fluorophenyl)-1H-pyrazol-5-yl]amino}pyrimidin-4-yl)-3,5-dimethyl-1H-pyrazole-4-carbonitrile]: the IC50 turned out to be 49 nM. This IC50 is about 3.1-fold higher than that of the compound before.

Regarding `CCc1c(Nc2cc(-n3nc(C)c(C(=O)N4CC(F)(F)C4)c3C)ncn2)nn(C)c1-c1ccc(F)cc1` [Example 124, (3,3-difluoroazetidin-1-yl) [1-(6-{[4-ethyl-5-(4-fluorophenyl)-1-methyl-1H-pyrazol-3-yl]amino}pyrimidin-4-yl)-3,5-dimethyl-1H-pyrazol-4-yl]methanone], the IC50 was 155 nM. This IC50 is about 3.2-fold higher than that of the compound before.

In turn, `CCc1c(Nc2cc(-n3nc(C)c(C(=O)N4CC(F)(C(F)(F)F)C4)c3C)ncn2)nn(C)c1-c1ccc(F)cc1` [Example 85, [1-(6-{[4-ethyl-5-(4-fluorophenyl)-1-methyl-1H-pyrazol-3-yl]amino}pyrimidin-4-yl)-3,5-dimethyl-1H-pyrazol-4-yl][3-fluoro-3-(trifluoromethyl)azetidin-1-yl]methanone] had an IC50 of 130 nM.

In turn, `Cc1c(-c2ccc(F)cc2)nn(CC2CC2)c1Nc1cc(-n2nc3c(c2C)C(C)(O)CC3)ncn1` (single isomer, unassigned) [Example 515, 2-(6-{[1-(cyclopropylmethyl)-3-(4-fluorophenyl)-4-methyl-1H-pyrazol-5-yl]amino}pyrimidin-4-yl)-3,4-dimethyl-2,4,5,6-tetrahydrocyclopenta[c]pyrazol-4-ol] returned an IC50 of 110 nM.

Compound `Cc1nn(-c2cc(Nc3c(C)c(-c4ccc(C(F)(F)F)cc4)nn3CC3CC3)ncn2)c(C(C)(C)O)c1Cl` [Example 294, 2-{4-chloro-1-[6-({1-(cyclopropylmethyl)-4-methyl-3-[4-(trifluoromethyl)phenyl]-1H-pyrazol-5-yl}amino)pyrimidin-4-yl]-3-methyl-1H-pyrazol-5-yl}propan-2-ol] registered an IC50 of 1400 nM.

Consider `Cc1nn(-c2cc(Nc3nn(C)c(-c4ccc(C#N)cc4)c3C)ncn2)c(C)c1C(C)(C)O` [Example 300, 4-[3-({6-[4-(2-hydroxypropan-2-yl)-3,5-dimethyl-1H-pyrazol-1-yl]pyrimidin-4-yl}amino)-1,4-dimethyl-1H-pyrazol-5-yl]benzonitrile], for which the midpoint of inhibition, the IC50, lay at 88 nM.

Turning to `CCc1c(Nc2cc(-n3nc(CO)cc3C)ncn2)nn(C)c1-c1ccc(F)cc1` [Example 94, [1-(6-{[4-ethyl-5-(4-fluorophenyl)-1-methyl-1H-pyrazol-3-yl]amino}pyrimidin-4-yl)-5-methyl-1H-pyrazol-3-yl]methanol], the IC50 was 2500 nM.

Take `Cc1nn(-c2cc(Nc3nn(CCC4CC4)c(-c4ccc(C#N)cc4)c3C)ncn2)c(C(F)F)c1Cl` [Example 239, 4-[3-({6-[4-chloro-5-(difluoromethyl)-3-methyl-1H-pyrazol-1-yl]pyrimidin-4-yl}amino)-1-(2-cyclopropylethyl)-4-methyl-1H-pyrazol-5-yl]benzonitrile]: the IC50 was found to be 290 nM. Against the preceding compound, the IC50 is about 8.6-fold lower.

Consider `Cc1nn(-c2cc(Nc3c(C)c(-c4ccc(F)cc4)nn3CC3CC3)ncn2)c(C)c1CO` [Example 282, [1-(6-{[1-(cyclopropylmethyl)-3-(4-fluorophenyl)-4-methyl-1H-pyrazol-5-yl]amino}pyrimidin-4-yl)-3,5-dimethyl-1H-pyrazol-4-yl]methanol], for which half-maximal inhibition (IC50) was put at 73 nM.

For `Cc1cc(C)n(-c2cc(Nc3[nH]nc(-c4ccc(F)cc4)c3Cl)ncn2)n1` [Example 14, N-[4-chloro-3-(4-fluorophenyl)-1H-pyrazol-5-yl]-6-(3,5-dimethyl-1H-pyrazol-1-yl)pyrimidin-4-amine], it took 70 nM to reach half-maximal inhibition (IC50).

The compound `Cc1cc(C)n(-c2cc(Nc3nn(C)c(-c4ccc(F)cc4)c3OC(F)F)ncn2)n1` [Example 400, N-[4-(difluoromethoxy)-5-(4-fluorophenyl)-1-methyl-1H-pyrazol-3-yl]-6-(3,5-dimethyl-1H-pyrazol-1-yl)pyrimidin-4-amine] returned an IC50 of 6 nM.

`Cc1nn(-c2cc(Nc3c(C)c(-c4ccc(F)cc4)nn3CC3CC3)ncn2)c(C)c1C(O)(C(F)(F)F)C(F)(F)F` [Example 295, 2-[1-(6-{[1-(cyclopropylmethyl)-3-(4-fluorophenyl)-4-methyl-1H-pyrazol-5-yl]amino}pyrimidin-4-yl)-3,5-dimethyl-1H-pyrazol-4-yl]-1,1,1,3,3,3-hexafluoropropan-2-ol] yielded an IC50 of 13 nM.

Take `Cc1cc(C)n(-c2cc(Nc3c(Cl)c(-c4ccc(C#N)cc4)nn3CC3CC3)ncn2)n1` [Example 441, 4-[4-chloro-1-(cyclopropylmethyl)-5-{[6-(3,5-dimethyl-1H-pyrazol-1-yl)pyrimidin-4-yl]amino}-1H-pyrazol-3-yl]benzonitrile]: it took 21 nM to reach half-maximal inhibition (IC50). This IC50 lies about 1.6-fold higher than the previous one.

`Cc1nn(-c2cc(Nc3nn(C)c(-c4ccc(F)cc4)c3Cl)ncn2)c(C)c1C1(O)CC1` [Example 357, 1-[1-(6-{[4-chloro-5-(4-fluorophenyl)-1-methyl-1H-pyrazol-3-yl]amino}pyrimidin-4-yl)-3,5-dimethyl-1H-pyrazol-4-yl]cyclopropanol] came in with an IC50 of 32 nM.
